Measured values from ChEMBL document CHEMBL5465560, “Selectivity Literature for EUbOPEN Chemogenomic Library” (2024).

Assays:
[1] = molecular target: Dual specificity testis-specific protein kinase 1 (Homo sapiens) (UniProt Q15569); assay: Selectivity interaction (KinomeScan (DiscoverX)) EUB0001079a TESK1; settings: at 1 µM
[2] = molecular target: T1, Protein kinase C epsilon type (Homo sapiens) (UniProt Q02156); assay: Selectivity interaction (KinomeScan (DiscoverX)) EUB0000618a PRKCE; settings: at 10 µM
T1 sequence (whole entry): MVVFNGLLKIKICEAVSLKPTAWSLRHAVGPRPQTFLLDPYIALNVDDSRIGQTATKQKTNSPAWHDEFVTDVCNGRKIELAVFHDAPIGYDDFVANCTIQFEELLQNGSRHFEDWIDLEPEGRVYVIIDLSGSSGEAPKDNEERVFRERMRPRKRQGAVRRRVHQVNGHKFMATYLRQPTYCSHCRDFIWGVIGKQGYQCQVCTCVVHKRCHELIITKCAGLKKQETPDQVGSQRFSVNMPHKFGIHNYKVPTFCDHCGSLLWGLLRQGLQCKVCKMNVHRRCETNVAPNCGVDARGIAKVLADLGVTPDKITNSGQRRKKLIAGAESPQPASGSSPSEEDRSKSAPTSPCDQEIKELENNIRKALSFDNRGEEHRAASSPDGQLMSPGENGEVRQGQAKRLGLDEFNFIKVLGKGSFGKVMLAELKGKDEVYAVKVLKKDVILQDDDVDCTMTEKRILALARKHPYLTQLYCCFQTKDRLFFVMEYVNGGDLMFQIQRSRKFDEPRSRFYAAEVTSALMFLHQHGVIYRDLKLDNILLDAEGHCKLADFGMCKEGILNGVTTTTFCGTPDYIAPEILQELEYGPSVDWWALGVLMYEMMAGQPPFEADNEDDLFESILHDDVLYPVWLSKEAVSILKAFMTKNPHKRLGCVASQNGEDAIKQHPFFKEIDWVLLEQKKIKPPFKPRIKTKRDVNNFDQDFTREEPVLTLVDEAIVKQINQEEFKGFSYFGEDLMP

[3] = molecular target: TGF-beta receptor type-2 (Homo sapiens) (UniProt P37173); assay: Selectivity interaction (KinomeScan (DiscoverX)) EUB0000045b TGFBR2
Chain of TGF-beta receptor type-2 (Homo sapiens) (P37173 whole entry): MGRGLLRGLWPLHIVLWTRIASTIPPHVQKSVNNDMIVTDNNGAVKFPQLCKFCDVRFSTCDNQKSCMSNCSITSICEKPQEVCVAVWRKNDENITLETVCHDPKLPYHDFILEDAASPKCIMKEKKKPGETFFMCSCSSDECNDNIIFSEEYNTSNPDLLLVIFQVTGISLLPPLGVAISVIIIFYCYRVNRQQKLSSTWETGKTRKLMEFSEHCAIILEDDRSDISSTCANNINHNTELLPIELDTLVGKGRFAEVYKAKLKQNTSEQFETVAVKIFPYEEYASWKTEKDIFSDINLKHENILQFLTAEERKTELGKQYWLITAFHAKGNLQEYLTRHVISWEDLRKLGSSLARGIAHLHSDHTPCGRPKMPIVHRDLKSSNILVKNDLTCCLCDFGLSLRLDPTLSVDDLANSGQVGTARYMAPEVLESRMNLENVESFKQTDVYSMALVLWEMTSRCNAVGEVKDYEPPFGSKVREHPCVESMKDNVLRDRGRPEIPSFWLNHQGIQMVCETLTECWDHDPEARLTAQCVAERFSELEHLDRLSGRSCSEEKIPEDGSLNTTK

[4] = molecular target: T2, Serine/threonine-protein kinase DCLK2 (Homo sapiens) (UniProt Q8N568); assay: Selectivity interaction (KinomeScan (DiscoverX)) EUB0001049a DCLK2; settings: at 1 µM
T2 sequence (whole entry): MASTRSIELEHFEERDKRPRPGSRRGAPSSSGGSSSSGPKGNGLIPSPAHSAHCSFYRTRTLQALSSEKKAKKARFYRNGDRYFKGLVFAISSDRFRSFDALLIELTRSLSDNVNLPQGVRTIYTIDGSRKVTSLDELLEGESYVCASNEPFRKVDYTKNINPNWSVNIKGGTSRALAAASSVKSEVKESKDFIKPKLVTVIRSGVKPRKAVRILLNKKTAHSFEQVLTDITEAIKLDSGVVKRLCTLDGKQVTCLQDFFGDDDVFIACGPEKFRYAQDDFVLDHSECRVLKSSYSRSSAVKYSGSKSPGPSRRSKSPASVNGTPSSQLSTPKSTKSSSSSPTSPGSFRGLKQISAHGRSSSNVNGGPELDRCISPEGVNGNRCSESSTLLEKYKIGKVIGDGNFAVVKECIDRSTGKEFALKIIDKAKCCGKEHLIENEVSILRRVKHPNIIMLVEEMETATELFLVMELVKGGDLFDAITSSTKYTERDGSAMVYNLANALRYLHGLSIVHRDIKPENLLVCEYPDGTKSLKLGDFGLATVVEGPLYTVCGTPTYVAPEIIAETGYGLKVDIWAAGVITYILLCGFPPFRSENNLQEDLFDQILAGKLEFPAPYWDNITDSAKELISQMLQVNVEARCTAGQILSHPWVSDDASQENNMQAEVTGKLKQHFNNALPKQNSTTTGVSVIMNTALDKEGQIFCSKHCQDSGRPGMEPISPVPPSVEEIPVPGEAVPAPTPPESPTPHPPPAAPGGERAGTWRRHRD

[5] = molecular target: T3, Homeodomain-interacting protein kinase 4 (Homo sapiens) (UniProt Q8NE63); assay: Selectivity interaction (KinomeScan (DiscoverX)) EUB0000695a HIPK4; settings: at 100 nM
T3 sequence (whole entry): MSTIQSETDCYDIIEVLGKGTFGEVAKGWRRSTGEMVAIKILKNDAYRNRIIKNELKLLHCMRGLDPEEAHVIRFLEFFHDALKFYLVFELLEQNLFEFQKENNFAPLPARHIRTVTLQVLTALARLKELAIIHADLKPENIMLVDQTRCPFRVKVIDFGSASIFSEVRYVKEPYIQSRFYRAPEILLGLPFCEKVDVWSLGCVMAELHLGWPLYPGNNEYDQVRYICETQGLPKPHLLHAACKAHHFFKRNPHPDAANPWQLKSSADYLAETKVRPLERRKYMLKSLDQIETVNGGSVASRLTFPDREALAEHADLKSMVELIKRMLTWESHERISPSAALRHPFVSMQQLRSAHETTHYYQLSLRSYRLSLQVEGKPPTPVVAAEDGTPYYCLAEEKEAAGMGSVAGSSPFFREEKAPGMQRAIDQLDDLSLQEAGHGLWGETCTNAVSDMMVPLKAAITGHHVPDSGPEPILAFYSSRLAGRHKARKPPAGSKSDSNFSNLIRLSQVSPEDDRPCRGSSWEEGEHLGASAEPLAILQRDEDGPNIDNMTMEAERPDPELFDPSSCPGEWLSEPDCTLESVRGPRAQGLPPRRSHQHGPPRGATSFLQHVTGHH

Chain of Dual specificity testis-specific protein kinase 1 (Homo sapiens) (Q15569 whole entry, looked up): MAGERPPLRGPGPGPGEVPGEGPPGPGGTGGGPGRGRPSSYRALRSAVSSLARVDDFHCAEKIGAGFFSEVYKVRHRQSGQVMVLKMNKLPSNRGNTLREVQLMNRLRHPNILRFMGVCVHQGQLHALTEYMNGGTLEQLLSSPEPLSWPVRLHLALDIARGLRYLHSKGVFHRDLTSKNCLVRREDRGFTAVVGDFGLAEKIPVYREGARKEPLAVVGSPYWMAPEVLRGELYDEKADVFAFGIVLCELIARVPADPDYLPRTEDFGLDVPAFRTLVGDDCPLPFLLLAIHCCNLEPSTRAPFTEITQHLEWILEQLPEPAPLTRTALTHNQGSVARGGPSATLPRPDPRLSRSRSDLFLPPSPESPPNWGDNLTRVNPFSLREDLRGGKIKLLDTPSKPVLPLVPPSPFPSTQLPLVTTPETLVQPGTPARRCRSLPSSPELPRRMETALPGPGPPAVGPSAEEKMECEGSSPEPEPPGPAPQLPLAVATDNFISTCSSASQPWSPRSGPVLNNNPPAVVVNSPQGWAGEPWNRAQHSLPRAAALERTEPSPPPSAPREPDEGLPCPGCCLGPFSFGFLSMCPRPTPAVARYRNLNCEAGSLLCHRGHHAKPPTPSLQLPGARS

How did the % of control [1] turn out when Nc1cnc(N2CCc3cc(S(=O)(=O)Nc4c(F)cc(Cl)cc4F)cc(N4CCCC4=O)c32)nc1 [TP-020n] was run?
The % of control was 100%.

How did the % of control [2] turn out when O[C@H]1CC[C@H](Nc2ncc3nc(Nc4c(F)cc(F)cc4F)n([C@H]4CCOC4)c3n2)CC1 was run?
Its % of control is 98%.

Which % of control ([3]; at 1 µM) does the source give for C=CC(=O)Nc1cc(-n2c(=O)ccc3cnc4ccc(-c5ccc(NS(C)(=O)=O)cc5)cc4c32)ccc1C here?
Its % of control is 100%.

What about the % of control ([3]; at 10 µM) of the same molecule?
The % of control was 100%.

With COc1cc(Nc2nc(C)cc(-c3cnn4nc(OC)ccc34)n2)cc(C(F)(F)F)c1 as the molecule, how does the % of control [4] read?
Its % of control is 84%.

Cc1cc(F)c(C(=O)Nc2cccc(-c3nncn3C(C)C)n2)cc1-n1cnc(C2CC2)c1 was tested. Which % of control [5] did it give?
Its % of control is 100%.
